Patent US20190018003A1, “TUMOR DISCRIMINATION METHOD, DIAGNOSTIC AGENT FOR TUMOR, AND SENSITIZER FOR TUMOR DIAGNOSIS” (TOTO LTD., priority 2017, published 2019)

Columns and labels:
Format in all cases: cell-based, human
[1] = system: WI-38 immortalized normal cells; assay: Co-culture in the same visual field, fluorescence of WI-38 cell region; conditions: Example 11, WI-38 cell line, ALA 2 mmol/l, particles 0.001 w/v %
From the text: Co-culture pertaining to the present example for having the tumor cells and the immortalized normal cells exist in the same visual field will be described with reference to FIGS. 1A and 1B. For the co-culture, there was used CytoSelect™ 24-Well Cell Co-Culture System (manufactured by COSMO BIO). The T24 cell line was subcultured in an MEM medium (MEM, GlutaMAX™ supplement (Thermo Fisher Scientific), 10 v/v % FBS (Thermo Fisher Scientific)). The cultured cells which reached a logarithmic growth phase 3 days or 4 days later were peeled off with Trypsin/EDTA (Thermo Fisher Scientific) and, after the reaction was terminated in an MEM medium, centrifuged. The cell pellet obtained was suspended in an MEM medium. The cell suspension was subjected to measurement of cell density and inoculated onto a well at a density of 4.4×10^4 cells/0.225 ml/well, the well having an insert 2 of an 8 mm diameter disposed for preparing a cell-free region therein, and cultured for 2 days to form a monolayer in region 3 around the insert 2.
WI-38 cells were subcultured in an MEM medium. […]
Detection of fluorescence was performed in the same manner as in Example 4 by using an inverted fluorescence microscope (ECLIPSE Ti-E, Nikon). Images having a visual field of 3300 μm (width)×2200 μm (length) were obtained, and relative fluorescence intensities were calculated in the same manner as in Example 5.

DLD-1 colon cancer cells = assay: Fluorescence enhancement in DLD-1 cells by separate administration of fluorescent dye (ALA) and particles, fluorescence microscope; conditions: Example 6, ALA 2 mmol/l, particles 0.001 w/v %, immediately after observation light irradiation
Experimental: (§1) DLD-1 cells (DLD-1, JCRB9094) were prepared. This cell line was subcultured in an RPMI-1640 medium (RPMI-1640 medium (Life Technologies), 10 v/v % FBS (Life Technologies)). The cultured cells which reached a logarithmic growth phase 3 days or 4 days later were peeled off with Trypsin/EDTA (Thermo Fisher Scientific) and, after the reaction was terminated in an RPMI-1640 medium, centrifuged. The cell pellet obtained was suspended in an RPMI-1640 medium. The cell suspension was subjected to measurement of cell density, inoculated onto a 6-well plate at a density of 2.9×10^5 cells/2 ml/well, and cultured for 1 day.
An aqueous ALA solution (50 mmol/l) was mixed into an RPMI-1640 medium (Life Technologies) to form a 2 mmol/l ALA solution. […]
(§2) Evaluation was performed as follows. The medium of the DLD-1 cells on a 6-well plate, obtained in Example 3, was removed by an aspirator, and evaluation thereof was performed under conditions where PBS (−) and HBSS (−) in Example 4 were changed to RPMI-1640 medium and RPMI-1640 medium (no glutamine and no phenol red (Thermo Fisher Scientific), respectively, and the solution was used for detection of fluorescence.
Detection of fluorescence was performed in the same manner as in Example 5 by using an inverted fluorescence microscope and, from the acquired images, fluorescence intensities were obtained and relative fluorescence intensities were calculated.

[2] = system: UM-UC-3 urinary bladder cancer cells; assay: Fluorescence enhancement in UM-UC-3 cells by separate administration of fluorescent dye (ALA) and particles, fluorescence microscope; conditions: Example 5, ALA 2 mmol/l, particles 0.001 w/v %, immediately after observation light irradiation
Experimental: as §1, with “UM-UC-3” for “DLD-1”, “(UMUC3, ATCC CRL-1749)” for “(DLD-1, JCRB9094)”, “E-MEM” for “RPMI-1640”, “(ATCC-formulated Eagle's Minimum Essential Medium (ATCC),” for “(RPMI-1640 medium (Life Technologies),”, “3.6×10^4” for “2.9×10^5”, “3 days. […]” for “1 day.”
as §2, with “the UM-UC-3” for “the DLD-1”, “to the E-MEM” for “to RPMI-1640”, “and the MEM” for “and RPMI-1640”
Detection of fluorescence was performed in the same manner as in Example 4 by using an inverted fluorescence microscope (ECLIPSE Ti-E, Nikon). A fluorescence intensity was calculated by subtracting luminance corresponding to dark noise from the image acquired and thereafter obtaining average luminance of all pixels where fluorescence was acquired. […]

Measured: Relative fluorescence intensity

NCC(=O)CCC(=O)O [fluorescent dye, 5-aminolevulinic acid]
1.0: all assays above
